SMILES strings stand for the structures. Residues, ends and D or L forms follow the SMILES beside them.

This is an account of results in publication PMC9698768, “Laminaria japonica Peptides Suppress Liver Cancer by Inducing Apoptosis: Possible Signaling Pathways and Mechanism” (Marine Drugs, 2022).

The subject of data set [1] is H22. In kind it is cell-based. Conditions: 48 h. The source says: (§1) Liver cancer cells (HuH7, HepG2, and H22) and human liver cells (HL-7702) were obtained from the Cell Bank of the Chinese Academy of Sciences (Shanghai, China). Fresh L. japonica was acquired from the South China Agricultural University (Guangzhou, China) and identified by Professor C. Wang (South China Agricultural University, Guangzhou, China). The annexin V-FITC/PI staining assay kit and propidium iodide (PI) reagents were supplied by Beyotime (Shanghai, China). Dulbecco’s modified Eagle medium (DMEM), fetal bovine serum (FBS), and penicillin-streptomycin (PS) were purchased from Gibco BRL (Life Technologies, Grand Island, NY, USA). The antibodies used in the current study were acquired from Cell Signaling Technology, Inc. (Manchester, NH, USA). Cell lines were grown in specific medium supplemented with 10% FBS. Cells were grown in a humidified atmosphere with 5% CO2 in incubators maintained at 37 °C. Balb/c mice (6–8 weeks old, 20 ± 2 g) were acquired from the Guangdong Experimental Animal Center. Ab MTT assay was used to detect the cytotoxicity activity of LJPs in vitro [42]. Briefly, 5 × 10^3 cells/well were seeded in 96-well plates, and varying concentrations of LJP were added. After 48 h, the MTT solution (5 mg/mL) was added for an additional 4 h. The absorbance was measured at 570 nm using a microplate reader (Bio-Rad; Hercules, CA, USA) after 100 μL of DMSO was added. The IC^50 values were determined by the non-linear multipurpose curve-fitting program.

Data set [2] concerns HuH7. In kind it is cell-based, human. The conditions noted are these: 48 h.
Description: as §1

Data set [3] deals with HepG2. The format is cell-based, human. Conditions: 48 h.
Description: as §1

A short description of data set [4]: in vitro. In kind it is cell-based. The conditions noted are these: human.
Description: as §1, with “Briefly, 5 × 10^3 cells/well were seeded in 96-well plates, and varying concentrations of LJP were added. After 48 h, the MTT solution (5 mg/mL) was added for an additional 4 h.” left out

With `C[C@@H](O)[C@H](NC(=O)[C@H](CO)NC(=O)[C@@H](N)Cc1ccccc1)C(=O)N[C@@H](Cc1c[nH]cn1)C(=O)NCC(=O)NCC(=O)O` [LJP-5] (H-FSTHGG-OH), the values for the IC50 in data set [1], in data set [2] and in data set [3] were 1490 ± 130 µM, 2440 ± 220 µM and 2780 ± 260 µM, respectively.
As to `N[C@@H](Cc1ccccc1)C(=O)N[C@@H](CCC(=O)O)C(=O)N[C@@H](Cc1c[nH]cn1)C(=O)N[C@@H](CO)C(=O)NCC(=O)O` [LJP-9] (H-FEHSG-OH), the IC50 was found to be 510 ± 70 µM in data set [1], 530 ± 50 µM in data set [2] and 690 ± 80 µM in data set [3].
For `CC(C)C[C@H](N)C(=O)N[C@@H](Cc1c[nH]c2ccccc12)C(=O)N[C@@H](CCC(=O)O)C(=O)N[C@@H](Cc1c[nH]cn1)C(=O)N[C@@H](CO)C(=O)N[C@@H](Cc1c[nH]cn1)C(=O)O` [LJP-2] (H-LWEHSH-OH), the IC50 amounted to 620 ± 50 µM in data set [1], 2250 ± 220 µM in data set [2] and 1710 ± 130 µM in data set [3].
For `N[C@@H](Cc1ccc(O)cc1)C(=O)N[C@@H](CCC(=O)O)C(=O)N[C@@H](Cc1c[nH]cn1)C(=O)N[C@@H](CO)C(=O)N[C@@H](Cc1c[nH]cn1)C(=O)NCC(=O)O` [LJP-11] (H-YEHSHG-OH), the IC50 in data set [1] turned out to be 700 ± 70 µM; in data set [2], 490 ± 50 µM; in data set [3], 610 ± 70 µM.
Taken in the same sequence, the figures for `C[C@@H](O)[C@H](N)C(=O)N[C@@H](Cc1ccccc1)C(=O)N[C@@H](CCCCN)C(=O)N[C@@H](Cc1c[nH]cn1)C(=O)NCC(=O)O` [LJP-12] (H-TFKHG-OH) were 720 ± 50 µM, 410 ± 40 µM and 600 ± 80 µM.
As to `N[C@@H](CCC(=O)O)C(=O)NCC(=O)N[C@@H](Cc1c[nH]cn1)C(=O)NCC(=O)N[C@@H](Cc1ccccc1)C(=O)O` [LJP-4] (H-EGHGF-OH), the results for the IC50 in data set [1], in data set [2] and in data set [3] were 680 ± 70 µM, 620 ± 70 µM and 650 ± 70 µM, respectively.
On to `N=C(N)NCCC[C@H](NC(=O)[C@H](Cc1c[nH]cn1)NC(=O)[C@H](CO)NC(=O)[C@@H](N)Cc1ccccc1)C(=O)NCC(=O)N[C@@H](Cc1c[nH]cn1)C(=O)O` [LJP-3] (H-FSHRGH-OH), for which the IC50 was 1700 ± 150 µM in data set [1], 1420 ± 120 µM in data set [2] and > 4000 µM in data set [3].
For `NCCCC[C@H](NC(=O)[C@@H](N)Cc1ccccc1)C(=O)N[C@@H](CCC(=O)O)C(=O)N[C@@H](Cc1c[nH]cn1)C(=O)NCC(=O)N[C@@H](Cc1ccc(O)cc1)C(=O)O` [LJP-6] (H-FKEHGY-OH), the results for the IC50 in data set [1], in data set [2] and in data set [3] were > 4000 µM, > 4000 µM and 3060 ± 310 µM, respectively.
For `CC(C)C[C@H](NC(=O)[C@H](Cc1c[nH]cn1)NC(=O)[C@H](Cc1ccccc1)NC(=O)CNC(=O)[C@@H](N)CCC(=O)O)C(=O)O` [LJP-1] (H-EGFHL-OH), the IC50 in data set [1] was determined as 360 ± 30 µM; in data set [2], 480 ± 50 µM; in data set [3], 450 ± 50 µM. Further, the 50% inhibitory concentration (IC50) at 48 h in data set [4] amounted to 7760 ± 710 µM.
`C[C@H](NC(=O)[C@@H](N)Cc1c[nH]cn1)C(=O)N[C@@H](CO)C(=O)N[C@@H](Cc1c[nH]c2ccccc12)C(=O)N[C@@H](CCC(=O)O)C(=O)N[C@@H](Cc1c[nH]cn1)C(=O)O` [LJP-10] (H-HASWEH-OH): the IC50 came to 3530 ± 340 µM in data set [1], 3520 ± 350 µM in data set [2] and 2690 ± 220 µM in data set [3].
Regarding `C[C@H](NC(=O)[C@H](Cc1c[nH]c2ccccc12)NC(=O)[C@H](CO)NC(=O)[C@H](Cc1ccc(O)cc1)NC(=O)CNC(=O)[C@H](C)NC(=O)[C@@H](N)Cc1c[nH]cn1)C(=O)O` [LJP-7] (H-HAGYSWA-OH), the IC50 in data set [1] came out at 1440 ± 120 µM; in data set [2], 2530 ± 240 µM; in data set [3], 1660 ± 110 µM.
For the compound `CC(C)[C@H](NC(=O)[C@H](Cc1ccc(O)cc1)NC(=O)[C@@H](NC(=O)[C@H](Cc1c[nH]cn1)NC(=O)[C@H](CO)NC(=O)[C@@H](N)Cc1ccccc1)[C@@H](C)O)C(=O)O` [LJP-8] (H-FSHTYV-OH), the IC50 was determined as 760 ± 80 µM in data set [1], 440 ± 40 µM in data set [2] and 630 ± 50 µM in data set [3].

Broadly, the IC50 is the concentration at which inhibition is half-maximal.
